Values of other authors, collected in patent US20070248684A1, “Pharmaceutical formulations of oxcarbazepine and methods for its preparation” (priority 2006, published 2007).

Conditions: in words

NC(=O)N1c2ccccc2CC(=O)c2ccccc21 [Oxcarbazepine, 10-oxo-10,11-dihydro-5H-dibenz[b,f]azepine-5-carboxamide]
solubility in water: practically insoluble
